Consider eight molecules from patent publication US20030212121A1, “Substituted N-(1,4,5,6-tetrahydro-cyclopentapyrazol-3-yl) derivatives, their production and use as pharmaceutical agents” (priority 2001, published 2003).

Molecules are shown by their SMILES.

The term melting point denotes the temperature of the solid-liquid transition. Regarding `COc1cccc(-c2ccc(CC(=O)Nc3n[nH]c4c3CCC4)cc2)c1` [Example 1.5], the melting point is 110 to 114 °C. The result for `O=C(Cc1ccc(-c2ccccc2F)cc1)Nc1n[nH]c2c1CCC2` [Example 1.3] reads 179 to 181 °C; that for `COc1ccccc1-c1ccc(CC(=O)Nc2n[nH]c3c2CCC3)cc1` [Example 1.4], 150 °C; that for `COc1ccc(-c2ccc(CC(=O)Nc3n[nH]c4c3CCC4)cc2)cc1` [Example 1.6], 168 to 172 °C. For the molecule `O=C(Cc1ccc(-c2ccc(F)cc2)cc1)Nc1n[nH]c2c1CCC2` [Example 1.2], the melting point was 161 to 163 °C.

The molecule `CC(=O)c1ccc(-c2ccc(CC(=O)Nc3n[nH]c4c3CCC4)cc2)cc1` [Example 1.8] returned a melting point of 112 to 114 °C.

With `O=C(Cc1ccc(-c2cccc(F)c2)cc1)Nc1n[nH]c2c1CCC2` [Example 1.0, 2-(3′-Fluoro-biphenyl-4-yl)-N-(1,4,5,6-tetrahydro-cyclopentapyrazol-3-yl)-acetamide], the melting point lay within 180 to 181 °C. `CC(=O)c1cccc(-c2ccc(CC(=O)Nc3n[nH]c4c3CCC4)cc2)c1` [Example 1.7] gave a melting point of 150 °C.
